Molecules are shown by their SMILES. pIC50: −log10 of the molar value.

This test concerns the target recombinant human PARP (Homo sapiens, UniProt P09874). Briefly: PARP activity: transfer of radiolabeled ADP-ribose units from [32P]NAD+ to a protein acceptor. It counts as biochemical. The following applies: Table 3. The protocol: PARP activity was monitored by transfer of radiolabeled ADP-ribose units from [^32P]NAD^+ to a protein acceptor such as histone or PARP itself. […] The reactions were initiated by the addition of 100 μM NAD^+ supplemented with 2 uCi [^32P]NAD^+/mL and maintained at room temperature for 12 minutes. Assays were terminated by the addition of […] and the radiolabeled precipitate was collected on a 96-well filter plate (Millipore, MADP NOB 50), washed with 25% TCA. The amount of acid-insoluble radioactivity, corresponding to polyADP-ribosylated protein, was quantitated in a Wallac MicroBeta scintillation counter.
Single-point inhibition data were calculated by comparing PARP, VEGFR2, or MLK3 activity in the presence of inhibitor to activity in the presence of DMSO only. Inhibition curves for compounds were generated by plotting percent inhibition versus log10 of the concentration of compound. IC50 values were calculated by nonlinear regression using the sigmoidal dose-response (variable slope) equation in GraphPad Prism as follows: y=bottom+(top−bottom)/(1+10^(logIC^50^−x)*Hillslope) where y is the % activity at a given concentration of compound, x is the logarithm of the concentration of compound, bottom is the % inhibition at the lowest compound concentration tested, and top is the % inhibition at the highest compound concentration examined. […]

recombinant human PARP, sequence (P09874 whole entry): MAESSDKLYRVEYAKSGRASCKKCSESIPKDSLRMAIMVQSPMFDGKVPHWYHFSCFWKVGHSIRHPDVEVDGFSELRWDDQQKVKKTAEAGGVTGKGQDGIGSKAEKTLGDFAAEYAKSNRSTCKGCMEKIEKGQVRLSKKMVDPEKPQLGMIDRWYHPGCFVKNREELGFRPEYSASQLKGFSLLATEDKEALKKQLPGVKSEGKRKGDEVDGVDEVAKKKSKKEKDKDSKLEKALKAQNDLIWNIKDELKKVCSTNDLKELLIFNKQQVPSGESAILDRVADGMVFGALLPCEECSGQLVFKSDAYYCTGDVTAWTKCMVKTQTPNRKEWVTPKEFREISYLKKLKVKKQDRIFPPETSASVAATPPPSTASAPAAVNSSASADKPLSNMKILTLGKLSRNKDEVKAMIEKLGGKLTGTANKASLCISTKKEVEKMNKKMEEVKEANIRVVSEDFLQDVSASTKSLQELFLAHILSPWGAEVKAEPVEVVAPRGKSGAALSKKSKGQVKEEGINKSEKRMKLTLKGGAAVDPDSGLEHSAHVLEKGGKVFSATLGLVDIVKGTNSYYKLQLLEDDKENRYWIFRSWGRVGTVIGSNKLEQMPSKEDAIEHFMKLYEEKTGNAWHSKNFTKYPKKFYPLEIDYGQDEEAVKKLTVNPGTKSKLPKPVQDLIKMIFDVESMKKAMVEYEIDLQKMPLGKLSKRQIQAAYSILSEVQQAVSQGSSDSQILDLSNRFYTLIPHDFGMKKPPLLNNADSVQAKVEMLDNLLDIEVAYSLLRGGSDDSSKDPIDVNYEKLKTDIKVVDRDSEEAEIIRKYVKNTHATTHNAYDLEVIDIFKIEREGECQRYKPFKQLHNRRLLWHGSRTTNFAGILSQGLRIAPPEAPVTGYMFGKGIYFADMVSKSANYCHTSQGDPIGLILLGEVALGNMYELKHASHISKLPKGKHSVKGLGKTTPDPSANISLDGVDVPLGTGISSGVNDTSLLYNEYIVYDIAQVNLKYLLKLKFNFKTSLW

The pIC50 is −log10 of the IC50, conventionally taken in molar units. For `NCCCCC(N)C(=O)N1C(=O)c2c3c(c4[nH]c5ccc(Br)cc5c4c2C1=O)CCC3` (stereo not shown) [Compound 6e], the pIC50 is 7.16.

(Values after US7122679B2, “Multicyclic compounds and the use thereof” (Cephalon, Inc., priority 2000, dated 2006).)
